Measured values from ChEMBL document CHEMBL5365434, “Cyclic Diguanylate G-Quadruplex Inducer-Nitric Oxide Donor Conjugate as a Bifunctional Antibiofilm Agent and Antibacterial Synergist against Pseudomonas aeruginosa with a Hyperbiofilm Phenotype” (J Med Chem, 2023).
Blank lines part the entries; values can stand above or below the molecule they belong to. Activity calls are given as the source filed them. No cut-off for these calls is given here.

What was measured:
[1] = Cytotoxicity against African green monkey Vero cells assessed as survival rate at 0.156 to 20 uM measured after 48 hrs by MTT assay relative to control; format: toxicity, cell-based; conditions: chlorocebus sabaeus, dose 0.156-20 µM, read-out: Survival
[2] = system: Pseudomonas aeruginosa; assay: Antibacterial activity against Pseudomonas aeruginosa PAO1 delta wspF assessed as eradication of preformed bacterial biofilm at 1.25 uM incubated for 15 hrs by crystal violet staining based analysis relative to control; format: functional
[3] = system: Pseudomonas aeruginosa; assay: Synergistic antibacterial activity against Pseudomonas aeruginosa PAO1 delta wspF assessed as inhibition of reproduction of biofilm bacteria at high concentration incubated for 15 hrs in presence of tobramycin by checker board assay; format: functional, organism-based
[4] = system: Pseudomonas aeruginosa; assay: Antibiofilm activity against Pseudomonas aeruginosa PAO1 delta wspF assessed as increase in number of planktonic bacteria at 1.25 to 10 uM incubated for 2 hrs; format: functional, organism-based; conditions: dose 1.25-10 µM
[5] = system: Pseudomonas aeruginosa; assay: Synergistic antibacterial activity Pseudomonas aeruginosa PAO1 delta wspF assessed as fold reduction in survival of biofilm bacteria at 1.25 to 10 uM incubated for 15 hrs in presence of tobramycin by checker board assay; format: functional; conditions: dose 1.25-10 µM
[6] = system: Pseudomonas aeruginosa; assay: Antibacterial activity against Pseudomonas aeruginosa PAO1 delta wspF assessed as inhibition of biofilm formation at 1.25 uM incubated for 24 hrs relative to control; format: functional; set-up: scale not given: the % may be the effect or the level left
[7] = system: Caenorhabditis elegans; assay: Synergistic anti-infective activity against Caenorhabditis elegans assessed as survival rate at 10 uM incubated for 24 hrs in presence of tobramycin relative to control; format: functional
[8] = system: Quadruplex DNA; assay: Induction of c-diGMP G quadruplex formation at 30 uM incubated for 12 hrs by circular dichroism analysis; format: nucleic-acid assay
[9] = system: Pseudomonas aeruginosa; assay: Antibiofilm activity against Pseudomonas aeruginosa PAO1 delta wspF at 1.25 uM measured after 24 hrs by crystal violet staining based analysis; format: functional, organism-based
[10] = system: Pseudomonas aeruginosa; assay: Antibacterial activity against Pseudomonas aeruginosa PAO1 delta wspF assessed as eradication of mature biofilm at 0.16 to 40 uM incubated for 15 hrs by crystal violet staining based analysis relative to control; format: functional; conditions: dose 0.16-40 µM
[11] = system: Caenorhabditis elegans; assay: Synergistic anti-infective activity against Caenorhabditis elegans assessed as survival rate at 0.16 to 20 uM incubated for 24 hrs in presence of tobramycin relative to control; format: functional; conditions: dose 0.16-20 µM
[12] = system: Vero; assay: Cytotoxicity against African green monkey Vero cells at 0.156 to 20 uM measured after 24 hrs by MTT assay relative to control; format: toxicity, cell-based; conditions: chlorocebus sabaeus, dose 0.156-20 µM
[13] = system: Pseudomonas aeruginosa; assay: Antibacterial activity against Pseudomonas aeruginosa PAO1 delta wspF assessed as reduction in c-di-GMP induced EMP production at 0.156 to 1.25 uM incubated for 3 hrs by Congo red dye based spectrophotometric assay; format: functional, organism-based; conditions: dose 0.156-1.25 µM
[14] = system: Pseudomonas aeruginosa; assay: Antibacterial activity against Pseudomonas aeruginosa PAO1 delta wspF assessed as reduction in c-di-GMP induced EMP production at 1.25 uM incubated for 3 hrs by Congo red dye based spectrophotometric assay relative to control; format: functional; set-up: scale not given: the % may be the effect or the level left
[15] = system: Pseudomonas aeruginosa; assay: Anti-motility activity against Pseudomonas aeruginosa PAO1 delta wspF assessed as promotion of swarming motility measured after 24 hrs; format: functional, organism-based; conditions: dose 0.156-1.25 µM
[16] = system: Pseudomonas aeruginosa; assay: Antibacterial activity against Pseudomonas aeruginosa PAO1 delta wspF assessed as eradication of preformed bacterial biofilm at 0.625 to 40 uM incubated for 15 hrs by crystal violet staining based analysis; format: functional, organism-based; conditions: dose 0.625-40 µM
[17] = system: Pseudomonas aeruginosa; assay: Synergistic antibacterial activity against Pseudomonas aeruginosa PAO1 delta wspF assessed as inhibition of reproduction of biofilm bacteria at upto 40 uM incubated for 15 hrs in presence of tobramycin by checker board assay; format: functional, organism-based
[18] = system: DNA; assay: Induction of pBR322 DNA (unknown origin) damage assessed as DNA embedding effect by measuring tail formation incubated for 10 mins by electrophoresis assay; format: toxicity
[19] = system: Caenorhabditis elegans; assay: Anti-infective activity against Caenorhabditis elegans assessed as survival rate at MBC level incubated for 24 hrs relative to control; format: functional
[20] = system: Pseudomonas aeruginosa; assay: Synergistic antibacterial activity against Pseudomonas aeruginosa PAO1 delta wspF assessed as inhibition of reproduction of biofilm bacteria at 2X MBC in presence of streptozocin by checker board assay; format: functional, organism-based

SMILES: COc1cc(/C=C/c2sc3ccccc3[n+]2C)ccc1N(C)N=O.[I-]
viability at 48 h, up to 20 µM [1]: 80%
Activity [2]: 40%
Activity [3]: Active
Activity [4]: Active
fold change (FC) [5]: 1000
Activity [6]: 80%
Activity [7]: 60%

Activity [8]: Active
SMILES: CCNc1ccc(/C=C/c2sc3ccccc3[n+]2C)cc1
Activity [9]: Active

SMILES: CN(N=O)C(=O)N[C@@H](C=O)[C@@H](O)[C@H](O)[C@H](O)CO [STREPTOZOCIN]
Activity [10]: 30%
Activity [11]: 25%

Activity [8]: Active
SMILES: CCCNc1ccc(/C=C/c2ccc3ccccc3[n+]2C)cc1
Activity [9]: Active

Activity [8]: Active
SMILES: CCCNc1ccc(/C=C/c2sc3ccccc3[n+]2C)cc1
Activity [9]: Active

Activity [8]: Active
SMILES: CNc1ccc(/C=C/c2ccc3ccccc3[n+]2C)cc1
Activity [9]: Active

Activity [8]: Active
SMILES: CNc1ccc(/C=C/c2sc3ccccc3[n+]2C)cc1OC.[I-]
Activity [12]: > 98%
Activity [13]: Active
Activity [14]: <50%
Activity [15]: Dose-Dependent Effect
Activity [16]: inactive
Activity [17]: inactive
Activity [18]: Not Active
Activity [9]: Active
Activity [6]: 60%

Activity [8]: Active
SMILES: CNc1ccc(/C=C/c2sc3ccccc3[n+]2C)cc1
Activity [9]: Active

Activity [8]: Active
SMILES: CC(C)Nc1ccc(/C=C/c2sc3ccccc3[n+]2C)cc1
Activity [9]: Active

Activity [8]: Active
SMILES: CCNc1ccc(/C=C/c2ccc3ccccc3[n+]2C)cc1
Activity [9]: Active

SMILES: CN1/C(=C/c2cc[n+](C)c3ccccc23)Sc2ccccc21.Cc1ccc(S(=O)(=O)[O-])cc1
Activity [19]: 20%
Activity [20]: Active
Activity [18]: Active
